Reference: ChEMBL document CHEMBL1155566, “Antifeedant activity of withanolides from Salpichroa origanifolia on Musca domestica” (J Nat Prod, 2000)
Active and inactive are the calls of the source. No cut-off for these calls is given here.

Key:
Musca domestica [1] = experiment: Antifeedant activity against Musca domestica CIPEIN larvae assessed as time needed to pupate 50% at 500 ppm; type: functional
Musca domestica [2] = experiment: Antifeedant activity against Musca domestica CIPEIN larvae supplied with medium yeast and milk concentration assessed as time needed to pupate 50%; type: functional
Musca domestica [3] = experiment: Antifeedant activity against Musca domestica CIPEIN larvae supplied with high yeast and milk concentration assessed as time needed to pupate 50%; type: functional
Musca domestica [4] = experiment: Antifeedant activity against Musca domestica CIPEIN larvae assessed as inhibition of larvae development after 18 days; type: functional, organism-based
Musca domestica [5] = experiment: Antifeedant activity against Musca domestica CIPEIN larvae assessed as larval mortality at 200 ppm after 18 days; type: functional
Musca domestica [6] = experiment: Antifeedant activity in Musca domestica CIPEIN larvae assessed as time needed to pupate 50% at 100 ppm; type: functional

## C[C@@H](c1ccc2c(c1)CC[C@H]1[C@H]2C[C@@H]2O[C@@]23CC=CC(=O)[C@]13C)[C@@H]1C[C@@H]2O[C@@H]2[C@H](O)O1 [SALPICHROLIDE A]
Musca domestica [1]
  Activity: 10.3 days
Musca domestica [2]
  Activity: 12.2 days
Musca domestica [3]
  Activity: 6.9 days
Musca domestica [4]
  EC50: 290 ppm
Musca domestica [5]
  Activity: 100%
Musca domestica [6]
  Activity: 7.9 days

## C[C@@H](c1ccc2c(c1)CC[C@H]1[C@H]2C[C@@H](O)[C@@]2(O)CC=CC(=O)[C@]12C)[C@@H]1C[C@@H]2O[C@@H]2[C@H](O)O1 [SALPICHROLIDE C]
Musca domestica [1]
  Activity: 8.1 days
Musca domestica [4]
  EC50: 310 ppm
Musca domestica [5]
  Activity: 100%
Musca domestica [6]
  Activity: 7.8 days

## C[C@@H](c1ccc2c(c1)CC[C@H]1[C@H]2C[C@@H]2O[C@@]23CC=CC(=O)[C@]13C)[C@@H]1C[C@@H]2O[C@@H]2C(=O)O1
Musca domestica [1]
  Activity: inactive

## C[C@@H](c1cc(O)c2c(c1)CC[C@H]1[C@H]2C[C@@H]2O[C@@]23CC=CC(=O)[C@]13C)[C@@H]1C[C@@H]2O[C@@H]2[C@H](O)O1 [SALPICHROLIDE G]
Musca domestica [1]
  Activity: 8 days
Musca domestica [4]
  EC50: 203 ppm
Musca domestica [5]
  Activity: 100%
Musca domestica [6]
  Activity: 7.7 days

## CC(=O)Oc1cc([C@H](C)[C@@H]2C[C@@H]3O[C@@H]3[C@H](OC(C)=O)O2)cc2c1[C@@H]1C[C@@H]3O[C@@]34CC=CC(=O)[C@]4(C)[C@H]1CC2
Musca domestica [1]
  Activity: Active

## C[C@@H](c1ccc2c(c1)CC[C@H]1[C@H]2CC(=O)[C@@]2(O)CC=CC(=O)[C@]12C)[C@@H]1C[C@@H]2O[C@@H]2C(=O)O1
Musca domestica [1]
  Activity: inactive
